Source: US20110003883A1, “ALLOSTERIC TRANS-SPLICING GROUP I RIBOZYME WHOSE ACTIVITY OF TARGET-SPECIFIC RNA REPLACEMENT IS CONTROLLED BY THEOPHYLLINE” (Industry-Academic Cooperation Foundation, Dankook University, priority 2008, published 2011)

Legend:
HT-29 cells = assay: MTT assay in HT-29 cells (hTERT+); assay type: cell-based, human; conditions: HT-29 cells with Ad-TheoRib-TK
Protocol: (§1) Cells were seeded in a 96 well plate (TPP) for 1 day, and then infected with Ad-TK (an adenoviral vector expressing a TK gene under the control of a CMV promoter), Ad-Rib-TK, Ad-TheoRib-TK, and Ad-LacZ (an adenoviral vector expressing a LacZ gene under the control of a CMV promoter) adenoviruses, respectively. The used media supplemented with GCV and a chemical (theophylline or caffeine) were exchanged with the same new media from every second to fifth day from the day after the virus infection. The HT-29 strain was seeded at a cell number of 3×10^3/well, the HepG2 strain was seeded at a cell number of 3×10^3/well, the Capan-1 strain was seeded at a cell number of 5×10^3/well, and the IMR90 strain was seeded at a cell number of 5×10^3/well. 5 days after the seeding of the strains, CellTiter 96® AQueous ONE Solution Cell Proliferation Assay (Promega) was added to each cell medium so that it amounted to 20% of the total medium, and the 96 wells were treated with 100 μl of resulting cell medium per well, and measured at a wavelength of 490 nm, using a Microplate reader model 550 (BioRad), to observe cell viability of the cells. […]

Capan-1 cells = assay: MTT assay in Capan-1 cells (hTERT+); assay type: cell-based, human; conditions: Capan-1 cells with Ad-TheoRib-TK
Protocol: as §1

HepG2 cells = assay: MTT assay in HepG2 cells (hTERT+); assay type: cell-based, human; conditions: HepG2 cells with Ad-TheoRib-TK
Protocol: as §1

theophylline aptamer = conditions: cited from earlier work

Cn1c(=O)c2[nH]cnc2n(C)c1=O [theophylline]
optimum condition for allosterically induced gene expression: concentration (HT-29 cells): 100 µM | optimum condition for allosterically induced gene expression: concentration (Capan-1 cells): 500 µM | optimum condition for allosterically induced gene expression: concentration (HepG2 cells): 10 µM

Cn1c(=O)c2c(ncn2C)n(C)c1=O [caffeine]
affinity to the theophylline aptamer, lower than theophylline (theophylline aptamer): 1000 times

Nc1nc(O)c2ncn(COC(CO)CO)c2n1 [GCV, ganciclovir]
optimum condition for allosterically induced gene expression: concentration (HT-29 cells): 10 µM | optimum condition for allosterically induced gene expression: concentration (Capan-1 cells): 50 µM | optimum condition for allosterically induced gene expression: concentration (HepG2 cells): 10 µM
